# In patent US20150376172A1, “FLUORO-[1,3]OXAZINES AS BACE1 INHIBITORS” (HOFFMANN-LA ROCHE INC., priority 2013, published 2015):
# Counter-ions that a name gives are not always drawn.
# Target: T1, BACE1 (Homo sapiens, UniProt P56817)
# T1 construct: endogenous in cells; host or cells: HEK293 APP cells
# Assay: Cellular Aβ-lowering assay (Abeta 40 AlphaLISA)
# Assay type: cell-based
# Settings: HEK293 APP cells; 18-20 hrs incubation; Aβ 40 in culture supernatants by AlphaLISA; read-out: BACE1 cell act. Aβ40 IC50
# Experimental: Cellular Aβ-lowering assay:
# The Abeta 40 AlphaLISA Assay can be used. The HEK293 APP cells were seeded in 96 well Microtiter plates in cell culture medium (Iscove's, plus 10% (v/v) fetal bovine serum, penicillin/streptomycin) to about 80% confluency and the compounds were added at a 3× concentration in ⅓ volume of culture medium (final DMSO concentration was kept at 1% v/v). After 18-20 hrs incubation at 37° C. and 5% CO2 in a humidified incubator, the culture supernatants were harvested for the determination of Aβ 40 concentrations using Perkin-Elmer Human Amyloid beta 1-40 (high specificity) Kit (Cat#AL275C).
# In a Perkin-Elmer White Optiplate-384 (Cat#6007290), 2 ul culture supernatants were combined with 2 μl of a 10× AlphaLISA Anti-hAβAcceptor beads+Biotinylated Antibody Anti-Aβ1-40 Mix (50 μg/mL/5 nM). After 1 hour room temperature incubation, 16 μl of a 1.25× preparation of Streptavidin (SA) Donor beads (25 μg/mL) were added and incubated for 30 minutes in the Dark. Light Emission at 615 nm was then recorded using EnVision-Alpha Reader. Levels of Aβ 40 in the culture supernatants were calculated as percentage of maximum signal (cells treated with 1% DMSO without inhibitor). The IC50 values were calculated using the Excel XLfit software.
# T1 sequence (P56817 46-501): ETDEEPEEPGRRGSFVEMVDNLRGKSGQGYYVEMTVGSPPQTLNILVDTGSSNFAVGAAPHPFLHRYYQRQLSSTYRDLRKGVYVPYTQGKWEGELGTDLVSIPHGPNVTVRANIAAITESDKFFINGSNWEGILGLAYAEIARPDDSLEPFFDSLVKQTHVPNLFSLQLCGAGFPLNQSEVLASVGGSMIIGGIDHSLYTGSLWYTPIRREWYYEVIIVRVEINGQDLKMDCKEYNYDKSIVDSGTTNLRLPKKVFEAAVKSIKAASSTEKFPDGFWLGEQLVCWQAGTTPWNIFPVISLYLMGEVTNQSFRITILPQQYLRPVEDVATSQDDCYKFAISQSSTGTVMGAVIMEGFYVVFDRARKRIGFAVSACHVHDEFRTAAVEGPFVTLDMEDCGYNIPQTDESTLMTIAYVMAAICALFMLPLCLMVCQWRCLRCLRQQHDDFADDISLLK
row,IC50 [nM],SMILES
1,270,"Cc1cc(C#Cc2ccc(F)c([C@]3(CF)C[C@@H](C(F)(F)F)OC(N)=N3)c2)sn1 [Example 64, (4S,6S)-4-(2-Fluoro-5-((3-methylisothiazol-5-yl)ethynyl)phenyl)-4-(fluoromethyl)-6-(trifluoromethyl)-5,6-dihydro-4H-1,3-oxazin-2-amine]"
2,1380,"C[C@@]1(c2cc(-c3cccnc3F)cs2)C[C@@H](C(F)(F)F)OC(N)=N1 [Example 27, (4S,6S)-4-(4-(2-Fluoropyridin-3-yl)thiophen-2-yl)-4-methyl-6-(trifluoromethyl)-5,6-dihydro-4H-1,3-oxazin-2-amine Hydrochloride]"
3,6420,"C[C@@]1(c2cc(-c3ccccc3)ccc2F)C[C@@H](C(F)(F)F)OC(N)=N1 [Example 41, (4S,6S)-4-(4-Fluorobiphenyl-3-yl)-4-methyl-6-(trifluoromethyl)-5,6-dihydro-4H-1,3-oxazin-2-amine]"
4,740,"C[C@@]1(c2sc(-c3cncc(Cl)c3)cc2Cl)C[C@@H](C(F)(F)F)OC(N)=N1 [Example 32, (4S,6S)-4-(3-Chloro-5-(5-chloropyridin-3-yl)thiophen-2-yl)-4-methyl-6-(trifluoromethyl)-5,6-dihydro-4H-1,3-oxazin-2-amine]"
5,510,"C[C@@]1(c2sc(-c3cccc(C#N)c3)cc2Cl)C[C@@H](C(F)(F)F)OC(N)=N1 [Example 33, 3-(5-((4S,6S)-2-Amino-4-methyl-6-(trifluoromethyl)-5,6-dihydro-4H-1,3-oxazin-4-yl)-4-chlorothiophen-2-yl)benzonitrile]"
6,150,"C[C@@]1(c2cc(-c3cncc(Cl)c3)ccc2F)C[C@@H](C(F)(F)F)OC(N)=N1 [Example 13, (4S,6S)-4-(5-(5-Chloropyridin-3-yl)-2-fluorophenyl)-4-methyl-6-(trifluoromethyl)-5,6-dihydro-4H-1,3-oxazin-2-amine]"
7,330,"C[C@@]1(c2cc(-c3cccc(C(F)(F)F)c3)cs2)C[C@@H](C(F)(F)F)OC(N)=N1 [Example 28, (4S,6S)-4-Methyl-6-(trifluoromethyl)-4-(4-(3-(trifluoromethyl)phenyl)thiophen-2-yl)-5,6-dihydro-4H-1,3-oxazin-2-amine]"
8,310,"CC#Cc1cncc(-c2csc([C@]3(C)C[C@@H](C(F)(F)F)OC(N)=N3)c2)c1 [Example 29, (4S,6S)-4-Methyl-4-(4-(5-(prop-1-ynyl)pyridin-3-yl)thiophen-2-yl)-6-(trifluoromethyl)-5,6-dihydro-4H-1,3-oxazin-2-amine Hydrochloride]"
9,250,"C[C@@]1(c2cc(C#Cc3ccnc(Cl)c3)ccc2F)C[C@@H](C(F)(F)F)OC(N)=N1 [Example 20, (4S,6S)-4-(5-((2-Chloropyridin-4-yl)ethynyl)-2-fluorophenyl)-4-methyl-6-(trifluoromethyl)-5,6-dihydro-4H-1,3-oxazin-2-amine]"
10,2660,"C[C@@]1(c2cc(C#Cc3cncnc3)ccc2F)C[C@@H](C(F)(F)F)OC(N)=N1 [Example 50, (4S,6S)-4-(2-fluoro-5-(pyrimidin-5-ylethynyl)phenyl)-4-methyl-6-(trifluoromethyl)-5,6-dihydro-4H-1,3-oxazin-2-amine]"
11,1360,"C[C@@]1(c2cc(C#Cc3cnc(C#N)nc3)ccc2F)C[C@@H](C(F)(F)F)OC(N)=N1 [Example 54, 5-[2-[3-[(4S,6S)-2-amino-4-methyl-6-(trifluoromethyl)-5,6-dihydro-1,3-oxazin-4-yl]-4-fluorophenyl]ethynyl]pyrimidine-2-carbonitrile]"
12,900,"C[C@@]1(c2cc(-c3cncc(C#N)c3)ccc2F)C[C@@H](C(F)(F)F)OC(N)=N1 [Example 12, 5-(3-((4S,6S)-2-Amino-4-methyl-6-(trifluoromethyl)-5,6-dihydro-4H-1,3-oxazin-4-yl)-4-fluorophenyl)nicotinonitrile]"
13,14,"C[C@]1(c2cc(NC(=O)c3ccc(Cl)cn3)ccc2F)N=C(N)O[C@H](C(F)(F)F)[C@@H]1F [Example 4, N-(3-((4R,5R,6S)-2-Amino-5-fluoro-4-methyl-6-(trifluoromethyl)-5,6-dihydro-4H-1,3-oxazin-4-yl)-4-fluorophenyl)-5-chloropicolinamide]"
14,3560,"Cc1cc(F)c([C@]2(C)C[C@@H](C(F)(F)F)OC(N)=N2)cc1-c1cccc(C#N)c1F [Example 74, 5′-((4S,6S)-2-Amino-4-methyl-6-(trifluoromethyl)-5,6-dihydro-4H-1,3-oxazin-4-yl)-2,4′-difluoro-2′-methylbiphenyl-3-carbonitrile]"
15,420,"C[C@@]1(c2cc(-c3cncnc3)ccc2F)C[C@@H](C(F)(F)F)OC(N)=N1 [Example 11, (4S,6S)-4-(2-fluoro-5-(pyrimidin-5-yl)phenyl)-4-methyl-6-(trifluoromethyl)-5,6-dihydro-4H-1,3-oxazin-2-amine]"
16,1670,"COc1cnc(C#Cc2ccc(F)c([C@]3(C)C[C@@H](C(F)(F)F)OC(N)=N3)c2)nc1 [Example 24, (4S,6S)-4-(2-Fluoro-5-((5-methoxypyrimidin-2-yl)ethynyl)phenyl)-4-methyl-6-(trifluoromethyl)-5,6-dihydro-4H-1,3-oxazin-2-amine]"
17,77,"C[C@@]1(c2cc(C#Cc3ncc(Cl)cn3)ccc2F)C[C@@H](C(F)(F)F)OC(N)=N1 [Example 23, (4S,6S)-4-(5-((5-Chloropyrimidin-2-yl)ethynyl)-2-fluorophenyl)-4-methyl-6-(trifluoromethyl)-5,6-dihydro-4H-1,3-oxazin-2-amine]"
18,1430,"C[C@@]1(c2cc(C#Cc3ccc(Cl)cc3)ccc2F)C[C@@H](C(F)(F)F)OC(N)=N1 [Example 75, (4S,6S)-4-(5-((4-Chlorophenyl)ethynyl)-2-fluorophenyl)-4-methyl-6-(trifluoromethyl)-5,6-dihydro-4H-1,3-oxazin-2-amine]"
19,140,"C[C@@]1(c2cccc(NC(=O)c3ccc(C#N)cn3)c2F)C[C@@H](C(F)(F)F)OC(N)=N1 [Example 37, N-(3-((4S,6S)-2-Amino-4-methyl-6-(trifluoromethyl)-5,6-dihydro-4H-1,3-oxazin-4-yl)-2-fluorophenyl)-5-cyanopicolinamide]"
20,59,"Cc1cc(C#Cc2ccc(F)c([C@]3(C)C[C@@H](C(F)(F)F)OC(N)=N3)c2)sn1 [Example 65, (4S,6S)-4-(2-Fluoro-5-((3-methylisothiazol-5-yl)ethynyl)phenyl)-4-methyl-6-(trifluoromethyl)-5,6-dihydro-4H-1,3-oxazin-2-amine]"
21,10600,"Cc1cc(-c2cncc(-c3ccc(F)c([C@]4(CF)C[C@@H](C(F)(F)F)OC(N)=N4)c3)c2)n[nH]1 [Example 47, (4S,6S)-4-(2-fluoro-5-(5-(5-methyl-1H-pyrazol-3-yl)pyridin-3-yl)phenyl)-4-(fluoromethyl)-6-(trifluoromethyl)-5,6-dihydro-4H-1,3-oxazin-2-amine]"
22,13,"C[C@@]1(c2c(F)ccc(NC(=O)c3ccc(C#N)cn3)c2F)C[C@@H](C(F)(F)F)OC(N)=N1 [Example 38, N-(3-((4S,6S)-2-amino-4-methyl-6-(trifluoromethyl)-5,6-dihydro-4H-1,3-oxazin-4-yl)-2,4-difluorophenyl)-5-cyanopicolinamide]"
